From ChEMBL document CHEMBL2021846, “Symplocin A, a linear peptide from the Bahamian cyanobacterium Symploca sp. Configurational analysis of N,N-dimethylamino acids by chiral-phase HPLC of naphthacyl esters” (J Nat Prod, 2012)
Activity calls are given as the source filed them. No cut-off for these calls is given here.

What was measured:
HCT-116 = assay: Cytotoxicity against human HCT116 cells; type: functional, cell-based
Cathepsin E = target: T1, Cathepsin E (Homo sapiens, UniProt P14091); assay: Inhibition of cathepsin E
T1 sequence (P14091 whole entry): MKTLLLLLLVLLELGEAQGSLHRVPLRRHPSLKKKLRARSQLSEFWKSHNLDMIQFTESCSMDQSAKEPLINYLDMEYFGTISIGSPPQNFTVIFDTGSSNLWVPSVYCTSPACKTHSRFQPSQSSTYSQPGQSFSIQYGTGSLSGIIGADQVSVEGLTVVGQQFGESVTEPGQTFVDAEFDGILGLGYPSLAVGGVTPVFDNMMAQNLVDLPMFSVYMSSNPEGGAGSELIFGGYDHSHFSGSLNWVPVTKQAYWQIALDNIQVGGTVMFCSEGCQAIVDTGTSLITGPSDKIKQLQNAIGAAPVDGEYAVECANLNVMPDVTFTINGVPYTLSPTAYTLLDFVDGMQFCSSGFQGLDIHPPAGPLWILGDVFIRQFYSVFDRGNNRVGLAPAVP

SMILES: CC[C@@H](C)[C@H](C(=O)O[C@@H](C(=O)N[C@@H](Cc1ccc(O)cc1)C(=O)N[C@@H](CO)C(=O)N[C@@H](CC(C)C)[C@H](O)CC(=O)N[C@H](C(=O)NCC(=O)N(C)[C@H](Cc1ccccc1)C(=O)N1CCC[C@H]1C(=O)OC)C(C)C)C(C)C)N(C)C [SYMPLOCIN A]
- Activity (HCT-116): inactive
- IC50 (Cathepsin E): 0.3 nM
